Measurements from patent US6737383B1, “Herbicidal oxadiazolidines” (priority 1999, dated 2004).

Assays:
duck salad = assay: Test B flood test duck salad; assay type: in vivo, Heteranthera limosa
Outline: (§1)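 Read-out is a visual response score from 0 (no effect) to 10 (complete control), assigned by comparison with untreated controls. Treatment was applied at the 2-leaf stage, and plants stayed in the greenhouse for twelve to sixteen days before scoring.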

surinam grass = assay: Test B pre/postemergence surinam grass; assay type: in vivo, Brachiaria decumbens
Outline: (§2)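 Response is a visual 0-to-10 score relative to untreated plants, where 0 means no effect and 10 means complete control, taken twelve to sixteen days after application. Treatments went onto soil at planting and onto foliage of 1- to 4-leaf plants, using a surfactant-containing non-phytotoxic solvent.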

blackgrass = assay: Test B pre/postemergence blackgrass; assay type: in vivo, Alopecurus myosuroides
Outline: as §2

soybean = assay: Test B pre/postemergence soybean; assay type: in vivo, Glycine max
Outline: as §2

purple nutsedge = assay: Test B pre/postemergence purple nutsedge; assay type: in vivo, Cyperus rotundus
Outline: as §2

smallflower flatsedge = assay: Test B flood test smallflower flatsedge; assay type: in vivo, Cyperus difformis
Outline: as §1

rape = assay: Test B pre/postemergence rape; assay type: in vivo, Brassica napus
Outline: as §2

giant foxtail = assay: Test B pre/postemergence giant foxtail; assay type: in vivo, Setaria faberii
Outline: as §2

wild oat = assay: Test B pre/postemergence wild oat; assay type: in vivo, Avena fatua
Outline: as §2

cocklebur = assay: Test B pre/postemergence cocklebur; assay type: in vivo, Xanthium strumarium
Outline: as §2

crabgrass = assay: Test B pre/postemergence crabgrass; assay type: in vivo, Digitaria sanguinalis
Outline: as §2

wheat = assay: Test B pre/postemergence wheat; assay type: in vivo, Triticum aestivum
Outline: as §2

pigweed = assay: Test B pre/postemergence pigweed; assay type: in vivo, Amaranthus retroflexus
Outline: as §2

rice = assay: Test B flood test rice; assay type: in vivo, Oryza sativa
Outline: as §1

corn = assay: Test B pre/postemergence corn; assay type: in vivo, Zea mays
Outline: as §2

sugar beet = assay: Test B pre/postemergence sugar beet; assay type: in vivo, Beta vulgaris
Outline: as §2

morningglory = assay: Test B pre/postemergence morningglory; assay type: in vivo, Ipomoea hederacea
Outline: as §2

velvetleaf = assay: Test B pre/postemergence velvetleaf; assay type: in vivo, Abutilon theophrasti
Outline: as §2

bedstraw = assay: Test B pre/postemergence bedstraw; assay type: in vivo, Galium aparine
Outline: as §2

bamyardgrass = assay: Test B flood test barnyardgrass; assay type: in vivo, Echinochloa crus-galli
Outline: as §1

[1] = Rate 62 g/ha, headed Pre-emergence (flood test species), scale 0 to 10 (0 no effect, 10 complete control)
[2] = Rate 125 g/ha, Pre-emergence, flood test species, scale 0 to 10 where 0 is no effect and 10 is complete control
[3] = Rate 250 g/ha, Pre-emergence, flood-test species, scale 0 to 10, 0 is no effect, 10 is complete control
[4] = Rate 500 g/ha, headed Pre-emergence (flood test species), scale 0 to 10 (0 no effect, 10 complete control)
[5] = Preemergence, Rate 62 g/ha, scale of 0 to 10 where 0 is no effect and 10 is complete control
[6] = Preemergence, Rate 125 g/ha, 0 is no effect, 10 is complete control
[7] = Preemergence, Rate 250 g/ha, scale 0 to 10, 0 is no effect, 10 is complete control
[8] = Rate 62 g/ha, Postemergence, scale of 0 to 10 where 0 is no effect and 10 is complete control
[9] = Rate 125 g/ha, Postemergence, scale 0 to 10

Compound: Cc1ccccc1-n1c(=O)on(C(=O)N(c2ccc(F)cc2Cl)C(C)C)c1=O [Compound 186]
- Ducksalad plant response rating (duck salad; [1]): 0
- Ducksalad plant response rating (duck salad; [2]): 0
- Ducksalad plant response rating (duck salad; [3]): 0
- Plant response rating, Ducksalad (duck salad; [4]): 0
- B. signalgrass plant response rating (surinam grass; [5]): 0
- B. signalgrass plant response rating (0 to 10 scale) (surinam grass; [6]): 0
- B. signalgrass plant response rating (surinam grass; [7]): 0
- B. signalgrass plant response rating (surinam grass; [8]): 0
- B. signalgrass plant response rating (surinam grass; Rate 125 g/ha, Postemergence, scale 0 (no effect) to 10 (complete control)): 0
- Plant response rating, B. signalgrass (surinam grass; Rate 250 g/ha, Postemergence, scale 0 to 10, 0 is no effect, 10 is complete control): 0
- Blackgrass plant response rating (blackgrass; [5]): 0
- Blackgrass plant response rating (0 to 10 scale) (blackgrass; [6]): 0
- Blackgrass plant response rating (blackgrass; [7]): 3
- Blackgrass plant response rating (blackgrass; [8]): 0
- Blackgrass plant response rating (blackgrass; [9]): 0
- Plant response rating (0 to 10; 0 is no effect, 10 is complete control), Blackgrass (blackgrass; Rate 250 g/ha, Postemergence): 4
- Soybean plant response rating (soybean; [5]): 0
- Soybean plant response rating (0 to 10 scale) (soybean; [6]): 0
- Soybean plant response rating (soybean; [7]): 0
- Soybean plant response rating (soybean; [8]): 1
- Soybean plant response rating (soybean; [9]): 1
- Plant response rating (0 to 10; 0 is no effect, 10 is complete control), Soybean (soybean; Rate 250 g/ha, Postemergence): 2
- Nutsedge plant response rating (purple nutsedge; [5]): 0
- Nutsedge plant response rating (0 to 10 scale) (purple nutsedge; [6]): 0
- Nutsedge plant response rating (purple nutsedge; [8]): 0
- Nutsedge plant response rating (purple nutsedge; [9]): 0
- Plant response rating (0 to 10; 0 is no effect, 10 is complete control), Nutsedge (purple nutsedge; Rate 250 g/ha, Postemergence): 2
- S. Flatsedge plant response rating (smallflower flatsedge; [1]): 0
- S. Flatsedge plant response rating (smallflower flatsedge; [2]): 0
- S. Flatsedge plant response rating (smallflower flatsedge; [3]): 0
- S. Flatsedge plant response rating (smallflower flatsedge; Rate 500 g/ha, Pre-emergence, flood test species, scale 0 to 10 (0 no effect, 10 complete control)): 0
- Rape plant response rating (rape; [5]): 0
- Rape plant response rating (0 to 10 scale) (rape; [6]): 0
- Rape plant response rating (rape; [7]): 0
- Rape plant response rating (rape; [8]): 0
- Rape plant response rating (rape; [9]): 0
- Plant response rating (0 to 10; 0 is no effect, 10 is complete control), Rape (rape; Rate 250 g/ha, Postemergence): 0
- Giant foxtail plant response rating (giant foxtail; [5]): 5
- Giant foxtail plant response rating (0 to 10 scale) (giant foxtail; [6]): 9
- Giant foxtail plant response rating (giant foxtail; [7]): 9
- Giant foxtail plant response rating (giant foxtail; [8]): 0
- Giant foxtail plant response rating (giant foxtail; [9]): 0
- Plant response rating (0 to 10; 0 is no effect, 10 is complete control), Giant foxtail (giant foxtail; Rate 250 g/ha, Postemergence): 0
- Wild oats plant response rating (wild oat; [5]): 0
- Wild oats plant response rating (wild oat; [7]): 0
- Wild oats plant response rating (wild oat; [9]): 0
- Plant response rating (0 to 10; 0 is no effect, 10 is complete control), Wild oats (wild oat; Rate 250 g/ha, Postemergence): 0
- Cocklebur plant response rating (cocklebur; [5]): 0
- Cocklebur plant response rating (0 to 10 scale) (cocklebur; [6]): 0
- Cocklebur plant response rating (cocklebur; [7]): 0
- Cocklebur plant response rating (cocklebur; [8]): 0
- Cocklebur plant response rating (cocklebur; [9]): 0
- Plant response rating (0 to 10; 0 is no effect, 10 is complete control), Cocklebur (cocklebur; Rate 250 g/ha, Postemergence): 0
- Crabgrass plant response rating (crabgrass; [5]): 2
- Crabgrass plant response rating (0 to 10 scale) (crabgrass; [6]): 6
- Crabgrass plant response rating (crabgrass; [7]): 6
- Crabgrass plant response rating (crabgrass; [8]): 0
- Crabgrass plant response rating (crabgrass; [9]): 0
- Plant response rating (0 to 10; 0 is no effect, 10 is complete control), Crabgrass (crabgrass; Rate 250 g/ha, Postemergence): 2
- Wheat plant response rating (wheat; [5]): 0
- Wheat plant response rating (wheat; [7]): 0
- Wheat plant response rating (wheat; [9]): 0
- Plant response rating (0 to 10; 0 is no effect, 10 is complete control), Wheat (wheat; Rate 250 g/ha, Postemergence): 0
- Redroot pigweed plant response rating (pigweed; [5]): 0
- Redroot pigweed plant response rating (0 to 10 scale) (pigweed; [6]): 0
- Redroot pigweed plant response rating (pigweed; [7]): 2
- Redroot pigweed plant response rating (pigweed; [8]): 0
- Redroot pigweed plant response rating (pigweed; [9]): 0
- Plant response rating (0 to 10; 0 is no effect, 10 is complete control), Redroot pigweed (pigweed; Rate 250 g/ha, Postemergence): 0
- Rice plant response rating (rice; [1]): 0
- Rice plant response rating (rice; [2]): 0
- Rice plant response rating (rice; [3]): 0
- Plant response rating, Rice (rice; [4]): 0
- Corn plant response rating (corn; [5]): 0
- Corn plant response rating (0 to 10 scale) (corn; [6]): 0
- Corn plant response rating (corn; [7]): 0
- Corn plant response rating (corn; [8]): 0
- Corn plant response rating (corn; [9]): 0
- Plant response rating (0 to 10; 0 is no effect, 10 is complete control), Corn (corn; Rate 250 g/ha, Postemergence): 0
- Sugarbeets plant response rating (sugar beet; [5]): 0
- Sugarbeets plant response rating (0 to 10 scale) (sugar beet; [6]): 0
- Sugarbeets plant response rating (sugar beet; [7]): 0
- Sugarbeets plant response rating (sugar beet; [8]): 0
- Sugarbeets plant response rating (sugar beet; [9]): 0
- Plant response rating (0 to 10; 0 is no effect, 10 is complete control), Sugarbeets (sugar beet; Rate 250 g/ha, Postemergence): 0
- Morningglory plant response rating (morningglory; [5]): 0
- Morningglory plant response rating (0 to 10 scale) (morningglory; [6]): 0
- Morningglory plant response rating (morningglory; [7]): 0
- Morningglory plant response rating (morningglory; [8]): 1
- Morningglory plant response rating (morningglory; [9]): 2
- Plant response rating (0 to 10; 0 is no effect, 10 is complete control), Morningglory (morningglory; Rate 250 g/ha, Postemergence): 2
- Velvetleaf plant response rating (velvetleaf; [5]): 0
- Velvetleaf plant response rating (velvetleaf; [7]): 2
- Velvetleaf plant response rating (velvetleaf; [9]): 0
- Plant response rating (0 to 10; 0 is no effect, 10 is complete control), Velvetleaf (velvetleaf; Rate 250 g/ha, Postemergence): 0
- Bedstraw plant response rating (bedstraw; [5]): 0
- Bedstraw plant response rating (0 to 10 scale) (bedstraw; [6]): 0
- Bedstraw plant response rating (bedstraw; [7]): 0
- Bedstraw plant response rating (bedstraw; [8]): 0
- Bedstraw plant response rating (bedstraw; [9]): 0
- Plant response rating (0 to 10; 0 is no effect, 10 is complete control), Bedstraw (bedstraw; Rate 250 g/ha, Postemergence): 8
- Barnyardgrass plant response rating (bamyardgrass; [1]): 0
- Barnyardgrass plant response rating (bamyardgrass; [2]): 0
- Barnyardgrass plant response rating (bamyardgrass; [3]): 0
- Plant response rating, Barnyardgrass (bamyardgrass; [4]): 0
